Earlier results on one compound are cited in PMC10482975 (Nature Communications, 2023).

The target of the data set is M2 mAChR. The following applies: read-out: predicted affinity for allosteric binding; cited from earlier work.

Take `C[N+](C)(C)CC#CCN1CCCC1=O` [oxotremorine-M]: the Kd is over 1000 µM.
